Where two headings read alike, the source gives them in different places.
Tests used:
JAK2 = JAK2 (Homo sapiens (Human), UniProt O60674); assay: Jak biochemical HTRF assay, JAK2
JAK1 = JAK1 (Homo sapiens (Human), UniProt P23458); assay: Jak biochemical HTRF assay, JAK1
[1] = read-out: JAK2 IC50, recombinant GST-tagged catalytic domain, [ATP] […]
[2] = read-out: JAK1 IC50, recombinant GST-tagged catalytic domain, [ATP] 31.8 μM
[3] = JAK2 IC50 (nM), recombinant GST-tagged catalytic domain, [ATP] […]
[4] = JAK1 IC50 (nM), recombinant GST-tagged catalytic domain, [ATP] 31.8 μM

Sequence of JAK2 (O60674 849-1124): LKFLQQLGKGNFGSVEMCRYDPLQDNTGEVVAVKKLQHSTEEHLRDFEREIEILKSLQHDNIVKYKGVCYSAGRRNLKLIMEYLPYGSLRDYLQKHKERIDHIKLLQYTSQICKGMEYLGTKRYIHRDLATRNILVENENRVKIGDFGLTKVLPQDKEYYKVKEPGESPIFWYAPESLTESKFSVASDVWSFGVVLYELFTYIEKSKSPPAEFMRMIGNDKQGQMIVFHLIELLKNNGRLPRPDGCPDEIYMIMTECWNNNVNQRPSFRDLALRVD
Sequence of JAK1 (P23458 875-1153): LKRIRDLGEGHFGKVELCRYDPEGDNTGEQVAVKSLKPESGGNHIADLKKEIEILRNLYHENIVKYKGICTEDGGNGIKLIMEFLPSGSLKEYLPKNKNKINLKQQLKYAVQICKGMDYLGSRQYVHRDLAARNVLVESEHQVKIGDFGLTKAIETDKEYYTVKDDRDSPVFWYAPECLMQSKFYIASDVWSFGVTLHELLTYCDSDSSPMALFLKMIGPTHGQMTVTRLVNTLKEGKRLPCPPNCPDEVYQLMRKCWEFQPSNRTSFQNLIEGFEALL

**Q.** How did the IC50 (JAK2; [1]) turn out when “1-[(1R or 1S)-2-cyano-1-cyclopropylethyl]-3-{[4-(methylsulfonyl)phenyl]amino}-1H-pyrazole-4-carboxamide [Example 14-2]” was run?
**A.** Its IC50 is 55 nM.

**Q.** And the IC50 (JAK1; [2])?
**A.** The IC50 was 5 nM.

**Q.** `N#CCC(C1CC1)n1cc(C(N)=O)c(Nc2ccccc2)n1` (stereo not drawn) [Example 1-1, 1-(2-Cyano-1-cyclopropylethyl)-3-(phenylamino)-1H-pyrazole-4-carboxamide] was tested. Which IC50 (JAK2; [3]) did it give?
**A.** Its IC50 is 79 nM.

**Q.** What about the IC50 (JAK1; [4]) of the same molecule?
**A.** Its IC50 is 10 nM.

**Q.** With “1-[(1R or 1S)-2-cyano-1-cyclopropylethyl]-3-{[4-(methylsulfonyl)phenyl]amino}-1H-pyrazole-4-carboxamide [Example 14-1]” as the molecule, how does the IC50 (JAK2; [1]) read?
**A.** Its IC50 is 8 nM.

**Q.** And the IC50 (JAK1; [2])?
**A.** Its IC50 is 1 nM.

**Q.** What does the source list for `CC(C)(C)OC(=O)N1CCC(C(CC#N)n2cc(C(N)=O)c(Nc3ccc(F)cc3)n2)CC1` (single isomer, unassigned) [Example 14-3, tert-butyl 4-[(1S or 1R)-1-{4-carbamoyl-3-[(4-fluorophenyl)amino]-1H-pyrazol-1-yl}-2-cyanoethyl)piperidine-1-carboxylate]?
**A.** IC50 (JAK2; [3]): 903 nM; IC50 (JAK1; [4]): 92 nM

**Q.** For `N#CCC(C1CC1)n1cc(C(N)=O)c(Nc2ccnc(Cl)c2)n1` (stereo not drawn) [Example 4-27, 3-[(2-chloropyridin-4-yl)amino]-1-(2-cyano-1-cyclopropylethyl)-1H-pyrazole-4-carboxamide], which IC50 (JAK2; [3]) is on record?
**A.** The IC50 was 290 nM.

**Q.** What about the IC50 (JAK1; [4]) of the same molecule?
**A.** The IC50 was 166 nM.

**Q.** How did the IC50 (JAK2; [3]) turn out when `N#CC[C@H](C1CC1)n1cc(C(N)=O)c(Nc2ccnc(F)c2)n1` (single isomer, unassigned) [Example 17-4, 1-[(1R or 1S)-2-cyano-1-cyclopropylethyl]-3-[(2-fluoropyridin-4-yl)amino]-1H-pyrazole-4-carboxamide] was run?
**A.** Its IC50 is 16 nM.

**Q.** And the IC50 (JAK1; [4])?
**A.** Its IC50 is 2 nM.

**Q.** For `N#CC[C@@H](C1CCN(C(=O)OCC(F)(F)F)CC1)n1cc(C(N)=O)c(Nc2ccc(F)cc2)n1` [Example 11-7, 2,2,2-trifluoroethyl 4-[(1S)-1-{4-carbamoyl-3-[(4-fluorophenyl)amino]-1H-pyrazol-1-yl}-2-cyanoethyl]piperidine-1-carboxylate], which IC50 (JAK2; [3]) is on record?
**A.** Its IC50 is 425 nM.

**Q.** What about the IC50 (JAK1; [4]) of the same molecule?
**A.** Its IC50 is 7 nM.

**Q.** Which IC50 (JAK2; [3]) does the source give for `CC(CC#N)n1cc(C(N)=O)c(Nc2ccc(C(=O)N3CCS(=O)(=O)CC3)cc2)n1` (stereo not drawn) [Example 1-16, 1-(2-cyano-1-methylethyl)-3-({4-[(1,1-dioxidothiomorpholin-4-yl)carbonyl]phenyl}amino)-1H-pyrazole-4-carboxamide] here?
**A.** Its IC50 is 45 nM.

**Q.** What about the IC50 (JAK1; [4]) of the same molecule?
**A.** Its IC50 is 19 nM.

**Q.** How did the IC50 (JAK2; [3]) turn out when `CCC(CC#N)n1cc(C(N)=O)c(Nc2ccc(C(=O)N3CCS(=O)(=O)CC3)cc2)n1` (stereo not drawn) [Example 1-17, 1-[1-{cyanomethyl)propyl]-3-({4-[(1,1-dioxidothiomorpholin-4-yl)carbonyl]phenyl}amino)-1H-pyrazole-4-carboxamide] was run?
**A.** The IC50 was 74 nM.

**Q.** And the IC50 (JAK1; [4])?
**A.** Its IC50 is 19 nM.

**Q.** `CC(C#N)Cn1cc(C(N)=O)c(Nc2ccc(F)cc2)n1` (stereo not drawn) [Example 9, 1-(2-Cyanopropyl)-3-[(4-fluorophenyl)amino]-1H-pyrazole-4-carboxamide] was tested. Which IC50 (JAK2; [3]) did it give?
**A.** The IC50 was 524 nM.

**Q.** What about the IC50 (JAK1; [4]) of the same molecule?
**A.** The IC50 was 59 nM.

**Q.** What does the source list for `CC(CC#N)(C1CC1)n1cc(C(N)=O)c(Nc2ccccc2)n1` (stereo not drawn) [Example 1-18, 1-(2-cyano-1-cyclopropyl-1-methylethyl)-3-(phenylamino)-1H-pyrazole-4-carboxamide]?
**A.** IC50 (JAK2; [3]): 413 nM; IC50 (JAK1; [4]): 195 nM

**Q.** Which IC50 (JAK2; [3]) does the source give for `N#CCC(C1CC1)n1cc(C(N)=O)c(Nc2cccc(C#N)c2)n1` (stereo not drawn) [Example 4-16, 1-(2-cyano-1-cyclopropylethyl)-3-[(3-cyanophenyl)amino]-1H-pyrazole-4-carboxamide] here?
**A.** The IC50 was 64 nM.

**Q.** And the IC50 (JAK1; [4])?
**A.** Its IC50 is 19 nM.

**Q.** Which IC50 (JAK2; [3]) does the source give for `CC(C)(C)OC(=O)N1CCC(F)(C(CC#N)n2cc(C(N)=O)c(Nc3ccccc3)n2)CC1` (stereo not drawn) [Example 3-2, tert-butyl 4-{1-[4-carbamoyl-3-(phenylamino)-1H-pyrazol-1-yl]-2-cyanoethyl}-4-fluoropiperidine-1-carboxylate] here?
**A.** Its IC50 is 1500 nM.

**Q.** And the IC50 (JAK1; [4])?
**A.** The IC50 was 99 nM.

**Q.** How did the IC50 (JAK2; [3]) turn out when `N#CCC(C1CC1)n1cc(C(N)=O)c(Nc2ccc(C(F)(F)F)cc2)n1` (stereo not drawn) [Example 4-3, 1-(2-cyano-1-cyclopropylethyl)-3-{[4-(trifluoromethyl)phenyl]amino}-1H-pyrazole-4-carboxamide] was run?
**A.** The IC50 was 110 nM.

**Q.** And the IC50 (JAK1; [4])?
**A.** The IC50 was 12 nM.

**Q.** How did the IC50 (JAK2; [3]) turn out when `COCC(C)OC(=O)N1CCC([C@H](CC#N)n2cc(C(N)=O)c(Nc3ccc(F)cc3)n2)CC1` (stereo partly drawn) [Example 11-9, 2-methoxy-1-methylethyl 4-[(1S)-1-{4-carbamoyl-3-[(4-fluorophenyl)amino]-1H-pyrazol-1-yl}-2-cyanoethyl]piperidine-1-carboxylate] was run?
**A.** The IC50 was 1030 nM.

**Q.** And the IC50 (JAK1; [4])?
**A.** The IC50 was 108 nM.
